≈ marks a conversion by molar mass, not a printed value.
How the values were obtained:
[1] = Cytotoxicity against mouse macrophage assessed as cell viability at 25 uM after 18 hrs by MTT assay; assay type: cell-based; conditions: mouse macrophages, read-out: Activity
[2] = Cytotoxicity against mouse macrophage assessed as cell viability at 12.5 uM after 18 hrs by MTT assay; assay type: cell-based; conditions: mouse macrophages, read-out: Activity
[3] = tested on: Mycobacterium tuberculosis; assay: Antitubercular activity against Mycobacterium tuberculosis ATCC 27294 by Alamar blue assay; assay type: functional
[4] = Cytotoxicity against mouse macrophage assessed as cell viability at 50 uM after 18 hrs by MTT assay; assay type: cell-based; conditions: mouse macrophages, read-out: Activity
[5] = tested on: Mycobacterium tuberculosis; assay: Antitubercular activity against Mycobacterium tuberculosis; assay type: functional
[6] = tested on: Mycobacterium avium; assay: Antitubercular activity against Mycobacterium avium by Broth micro dilution method; assay type: functional

SMILES	viability at 18 h, 25 µM [1]	viability at 18 h, 12.5 µM [2]	MIC [3]	viability at 18 h, 50 µM [4]	MIC [5]	MIC [6]
O=[N+]([O-])c1cccc(C2O[C@@H](c3cc(C(F)(F)F)nc4c(C(F)(F)F)cccc34)[C@H]3CCCCN23)c1 (stereo partly specified)	100%	100%	> 250 µM	100%	–	–
FC(F)(F)c1cc([C@H]2O[C@@H](c3ccccc3)N3CCCC[C@@H]23)c2cccc(C(F)(F)F)c2n1	96%	100%	26.8 µM (≈ 12.5 µg/mL)	95%	–	–
O=[N+]([O-])c1ccccc1C1O[C@@H](c2cc(C(F)(F)F)nc3c(C(F)(F)F)cccc23)[C@H]2CCCCN12 (mixture of isomers)	100%	100%	> 250 µM	100%	–	–
COc1cccc(C2O[C@@H](c3cc(C(F)(F)F)nc4c(C(F)(F)F)cccc34)[C@H]3CCCCN23)c1 (mixture of isomers)	80%	100%	25.2 µM	80%	–	–
COc1ccc(C2O[C@@H](c3cc(C(F)(F)F)nc4c(C(F)(F)F)cccc34)[C@H]3CCCCN23)cc1 (mixture of isomers)	100%	100%	25.2 µM	100%	–	–
O=[N+]([O-])c1ccc(C2O[C@@H](c3cc(C(F)(F)F)nc4c(C(F)(F)F)cccc34)[C@H]3CCCCN23)cc1 (mixture of isomers)	100%	100%	> 250 µM	100%	–	–
FC(F)(F)c1cc([C@@H]2OC(c3ccccc3Cl)N3CCCC[C@H]23)c2cccc(C(F)(F)F)c2n1 (mixture of isomers)	100%	100%	> 250 µM	100%	–	–
FC(F)(F)c1cc([C@@H]2OC(c3cccc(Cl)c3)N3CCCC[C@H]23)c2cccc(C(F)(F)F)c2n1 (mixture of isomers)	100%	100%	> 250 µM	90%	–	–
FC(F)(F)c1cc([C@@H]2OC(c3ccc(Cl)cc3)N3CCCC[C@H]23)c2cccc(C(F)(F)F)c2n1 (mixture of isomers)	100%	100%	> 250 µM	100%	–	–
FC(F)(F)c1cc([C@@H]2OC(c3cccc(Br)c3)N3CCCC[C@H]23)c2cccc(C(F)(F)F)c2n1 (mixture of isomers)	85%	100%	> 250 µM	85%	–	–
FC(F)(F)c1cc([C@@H]2OC(c3ccc(Br)cc3)N3CCCC[C@H]23)c2cccc(C(F)(F)F)c2n1 (mixture of isomers)	100%	100%	> 250 µM	100%	–	–
Fc1ccccc1C1O[C@@H](c2cc(C(F)(F)F)nc3c(C(F)(F)F)cccc23)[C@H]2CCCCN12 (mixture of isomers)	100%	100%	> 250 µM	100%	–	–
Fc1ccc(C2O[C@@H](c3cc(C(F)(F)F)nc4c(C(F)(F)F)cccc34)[C@H]3CCCCN23)cc1 (mixture of isomers)	84%	93%	25.8 µM	82%	–	–
Oc1ccccc1C1O[C@@H](c2cc(C(F)(F)F)nc3c(C(F)(F)F)cccc23)[C@H]2CCCCN12 (mixture of isomers)	85%	100%	25.9 µM	85%	–	–
Oc1ccc(C2O[C@@H](c3cc(C(F)(F)F)nc4c(C(F)(F)F)cccc34)[C@H]3CCCCN23)cc1 (mixture of isomers)	80%	100%	25.9 µM	80%	–	–
COc1ccccc1C1O[C@@H](c2cc(C(F)(F)F)nc3c(C(F)(F)F)cccc23)[C@H]2CCCCN12 (mixture of isomers)	100%	100%	12.6 µM	100%	–	–
CC[C@@H](CO)NCCN[C@@H](CC)CO [ETHAMBUTOL]	–	–	15.9 µM (≈ 3.25 µg/mL)	–	–	–
OC(c1cc(C(F)(F)F)nc2c(C(F)(F)F)cccc12)C1CCCCN1 (stereo unspecified) [MEFLOQUINE]	77%	81%	33 µM (≈ 12.5 µg/mL)	76%	21.1 µM (≈ 7.98 µg/mL)	21.1 µM (≈ 7.98 µg/mL)

From ChEMBL document CHEMBL1629482, “Synthesis and antitubercular activity of new mefloquine-oxazolidine derivatives” (Eur J Med Chem, 2010)
